Numbers after ± are expanded uncertainties.
Key:
[1] = xn = mol fraction of the nth substance listed
[2] = refractive index (Na D-line) (dimensionless); xn = mol fraction of the nth substance listed; settings: 100.5 kPa, Liquid, Standard Abbe refractometry

CCOC(=O)c1ccccc1 [ethyl benzoate] + CCO
Settings | refractive index, 288.15 K | refractive index, 298.15 K | refractive index, 308.15 K | refractive index, 318.15 K | surface tension liquid-gas, 288.15 K [mN/m] | surface tension liquid-gas, 298.15 K [mN/m] | surface tension liquid-gas, 308.15 K [mN/m] | surface tension liquid-gas, 318.15 K [mN/m]
[1], x1 = 0.05 | – | – | – | – | 23.9 ± 0.6 | 23.1 ± 0.6 | 22.2 ± 0.6 | 21.3 ± 0.6
[1], x1 = 0.1 | – | – | – | – | 24.7 ± 0.6 | 23.9 ± 0.6 | 23 ± 0.6 | 22.1 ± 0.6
[1], x1 = 0.15 | – | – | – | – | 25.5 ± 0.6 | 24.6 ± 0.6 | 23.7 ± 0.6 | 22.8 ± 0.6
[1], x1 = 0.2 | – | – | – | – | 26.2 ± 0.6 | 25.3 ± 0.6 | 24.4 ± 0.6 | 23.5 ± 0.6
[1], x1 = 0.25 | – | – | – | – | 26.9 ± 0.6 | 26 ± 0.6 | 25 ± 0.6 | 24.1 ± 0.6
[1], x1 = 0.3 | – | – | – | – | 27.5 ± 0.6 | 26.6 ± 0.6 | 25.6 ± 0.6 | 24.7 ± 0.6
[1], x1 = 0.35 | – | – | – | – | 28.1 ± 0.6 | 27.2 ± 0.6 | 26.1 ± 0.6 | 25.3 ± 0.6
[1], x1 = 0.4 | – | – | – | – | 28.7 ± 0.6 | 27.7 ± 0.6 | 26.7 ± 0.6 | 25.8 ± 0.6
[1], x1 = 0.45 | – | – | – | – | 29.2 ± 0.6 | 28.3 ± 0.6 | 27.2 ± 0.6 | 26.3 ± 0.6
[1], x1 = 0.5 | – | – | – | – | 29.7 ± 0.7 | 28.7 ± 0.6 | 27.7 ± 0.6 | 26.8 ± 0.6
[1], x1 = 0.55 | – | – | – | – | 30.2 ± 0.7 | 29.2 ± 0.6 | 28.1 ± 0.6 | 27.3 ± 0.6
[1], x1 = 0.6 | – | – | – | – | 30.7 ± 0.7 | 29.7 ± 0.7 | 28.6 ± 0.6 | 27.8 ± 0.6
[1], x1 = 0.65 | – | – | – | – | 31.2 ± 0.7 | 30.2 ± 0.7 | 29.1 ± 0.6 | 28.3 ± 0.6
[1], x1 = 0.7 | – | – | – | – | 31.8 ± 0.7 | 30.8 ± 0.7 | 29.6 ± 0.7 | 28.8 ± 0.6
[1], x1 = 0.75 | – | – | – | – | 32.3 ± 0.7 | 31.3 ± 0.7 | 30.1 ± 0.7 | 29.3 ± 0.7
[1], x1 = 0.8 | – | – | – | – | 32.9 ± 0.7 | 31.9 ± 0.7 | 30.6 ± 0.7 | 29.8 ± 0.7
[1], x1 = 0.85 | – | – | – | – | 33.6 ± 0.7 | 32.5 ± 0.7 | 31.2 ± 0.7 | 30.4 ± 0.7
[1], x1 = 0.9 | – | – | – | – | 34.3 ± 0.7 | 33.2 ± 0.7 | 31.9 ± 0.7 | 31 ± 0.7
[1], x1 = 0.95 | – | – | – | – | 35 ± 0.7 | 33.9 ± 0.7 | 32.6 ± 0.7 | 31.8 ± 0.7
[1], x1 = 1 | – | – | – | – | 35.7 ± 0.7 | 34.6 ± 0.7 | 33.3 ± 0.7 | 32.5 ± 0.7
[2], x1 = 0.05 | 1.38111 ± 0.00032 | 1.37682 ± 0.00032 | 1.37237 ± 0.00032 | 1.36815 ± 0.00032 | – | – | – | –
[2], x1 = 0.1 | 1.39597 ± 0.00032 | 1.39165 ± 0.00032 | 1.38717 ± 0.00032 | 1.38279 ± 0.00032 | – | – | – | –
[2], x1 = 0.15 | 1.40895 ± 0.00032 | 1.40452 ± 0.00032 | 1.39997 ± 0.00032 | 1.39551 ± 0.00032 | – | – | – | –
[2], x1 = 0.2 | 1.42035 ± 0.00032 | 1.41593 ± 0.00032 | 1.41131 ± 0.00032 | 1.40679 ± 0.00032 | – | – | – | –
[2], x1 = 0.25 | 1.43037 ± 0.00032 | 1.42598 ± 0.00032 | 1.42135 ± 0.00032 | 1.41678 ± 0.00032 | – | – | – | –
[2], x1 = 0.3 | 1.43936 ± 0.00032 | 1.43498 ± 0.00032 | 1.43033 ± 0.00032 | 1.42576 ± 0.00032 | – | – | – | –
[2], x1 = 0.35 | 1.44743 ± 0.00032 | 1.44303 ± 0.00032 | 1.4384 ± 0.00032 | 1.43378 ± 0.00032 | – | – | – | –
[2], x1 = 0.4 | 1.45479 ± 0.00032 | 1.45038 ± 0.00032 | 1.44571 ± 0.00032 | 1.44105 ± 0.00032 | – | – | – | –
[2], x1 = 0.45 | 1.46145 ± 0.00032 | 1.45702 ± 0.00032 | 1.45236 ± 0.00032 | 1.44765 ± 0.00032 | – | – | – | –
[2], x1 = 0.5 | 1.4675 ± 0.00032 | 1.46309 ± 0.00032 | 1.45841 ± 0.00032 | 1.45369 ± 0.00032 | – | – | – | –
[2], x1 = 0.55 | 1.47305 ± 0.00032 | 1.46865 ± 0.00032 | 1.46393 ± 0.00032 | 1.45918 ± 0.00032 | – | – | – | –
[2], x1 = 0.6 | 1.47816 ± 0.00032 | 1.47372 ± 0.00032 | 1.46901 ± 0.00032 | 1.46424 ± 0.00032 | – | – | – | –
[2], x1 = 0.65 | 1.48283 ± 0.00032 | 1.4784 ± 0.00032 | 1.47368 ± 0.00032 | 1.4689 ± 0.00032 | – | – | – | –
[2], x1 = 0.7 | 1.48715 ± 0.00032 | 1.48273 ± 0.00032 | 1.47801 ± 0.00032 | 1.47321 ± 0.00032 | – | – | – | –
[2], x1 = 0.75 | 1.49115 ± 0.00032 | 1.48675 ± 0.00032 | 1.48203 ± 0.00032 | 1.47724 ± 0.00032 | – | – | – | –
[2], x1 = 0.8 | 1.49488 ± 0.00032 | 1.49047 ± 0.00032 | 1.48578 ± 0.00032 | 1.48098 ± 0.00032 | – | – | – | –
[2], x1 = 0.85 | 1.4984 ± 0.00032 | 1.49401 ± 0.00032 | 1.48929 ± 0.00032 | 1.48449 ± 0.00032 | – | – | – | –
[2], x1 = 0.9 | 1.5017 ± 0.00032 | 1.49731 ± 0.00032 | 1.49257 ± 0.00032 | 1.48776 ± 0.00032 | – | – | – | –
[2], x1 = 0.95 | 1.50477 ± 0.00032 | 1.50037 ± 0.00032 | 1.49565 ± 0.00032 | 1.49086 ± 0.00032 | – | – | – | –
[2], x1 = 1 | 1.5076 ± 0.00032 | 1.50328 ± 0.00032 | 1.49863 ± 0.00032 | 1.49391 ± 0.00032 | – | – | – | –

Reference: the NIST ThermoML archive (doi:10.1021/je0601208)
